Experimental data published in patent publication US20050070510A1, “Substituted tetracycline compounds as synergistic antifungal agents” (Paratek Pharmaceuticals, Inc., priority 2001, published 2005).

test system: COS-1 cells; assay: In vitro mammalian cytotoxicity assay (Resazurin)

Row | Structure (SMILES) | In Vitro Cytotoxicity
1 | CNc1ccc(NC(=O)Nc2cc(N(C)C)c3c(c2O)C(=O)C2=C(O)[C@]4(C#N)C(=O)C(C(N)=O)=C(O)[C@@H](N(C)C)[C@]4(N)C[C@]2(N)C3)cc1 [SE] | * (toxicities greater than >25 μg/ml are represented by *)
2 | CN(C)[C@@H]1C(O)=C(C(N)=O)C(=O)[C@@]2(C#N)C(O)=C3C(=O)c4c(O)ccc(-c5ccc(CN6CCCC6)cc5)c4C[C@@]3(N)C[C@@]12N [HM] | * (toxicities greater than >25 μg/ml are represented by *)
3 | CN(C)[C@@H]1C(O)=C(C(N)=O)C(=O)[C@@]2(C#N)C(O)=C3C(=O)c4c(O)ccc(-c5cc6ccccc6o5)c4C[C@@]3(N)C[C@@]12N [FM] | * (toxicities greater than >25 μg/ml are represented by *)
4 | Cc1ccc(S(=O)(=O)NC(=O)C#Cc2cc(N(C)C)c3c(c2O)C(=O)C2=C(O)[C@]4(C#N)C(=O)C(C(N)=O)=C(O)[C@@H](N(C)C)[C@]4(N)C[C@]2(N)C3)cc1 [JJ] | * (toxicities greater than >25 μg/ml are represented by *)
5 | CC(C)NCc1ccc(-c2ccc(O)c3c2C[C@@]2(N)C[C@@]4(N)[C@H](N(C)C)C(O)=C(C(N)=O)C(=O)[C@@]4(C#N)C(O)=C2C3=O)cc1 [OT] | * (toxicities greater than >25 μg/ml are represented by *)
6 | CN(C)[C@@H]1C(O)=C(C(N)=O)C(=O)[C@@]2(C#N)C(O)=C3C(=O)c4c(O)ccc(-c5cncc(Br)c5)c4C[C@@]3(N)C[C@@]12N [VF] | ** (toxicities less than 25 μg/mL are represented by **)
7 | CN(C)[C@@H]1C(O)=C(C(N)=O)C(=O)[C@@]2(C#N)C(O)=C3C(=O)c4c(ccc(C(C)(C)C)c4O)[C@H](N)[C@@]3(N)[C@H](O)[C@@]12N [BB] | ** (toxicities less than 25 μg/mL are represented by **)
8 | CN(C)c1cc(C#CC2(O)CCCCC2)c(O)c2c1C[C@@]1(N)C[C@@]3(N)[C@H](N(C)C)C(O)=C(C(N)=O)C(=O)[C@@]3(C#N)C(O)=C1C2=O [FP] | * (toxicities greater than >25 μg/ml are represented by *)
9 | CCc1cc(N(C)C)c2c(c1O)C(=O)C1=C(O)[C@]3(C#N)C(=O)C(C(N)=O)=C(O)[C@@H](N(C)C)[C@]3(N)C[C@]1(N)C2 [QZ] | * (toxicities greater than >25 μg/ml are represented by *)
10 | CN(C)[C@@H]1C(O)=C(C(N)=O)C(=O)[C@@]2(C#N)C(O)=C3C(=O)c4c(O)ccc(-c5cccc(CN6CCOCC6)c5)c4C[C@@]3(N)C[C@@]12N [HS] | * (toxicities greater than >25 μg/ml are represented by *)
11 | CCc1cc(C#CC2=CCCCC2)c(O)c2c1C[C@@]1(N)C[C@@]3(N)[C@H](N(C)C)C(O)=C(C(N)=O)C(=O)[C@@]3(C#N)C(O)=C1C2=O [KE] | ** (toxicities less than 25 μg/mL are represented by **)
12 | CCCC#Cc1ccc(O)c2c1C[C@@]1(N)C[C@@]3(N)[C@H](N(C)C)C(O)=C(C(N)=O)C(=O)[C@@]3(C#N)C(O)=C1C2=O [KA] | ** (toxicities less than 25 μg/mL are represented by **)
13 | CN(C)[C@@H]1C(O)=C(C(N)=O)C(=O)[C@@]2(C#N)C(O)=C3C(=O)c4c(O)ccc(-c5ccc(NC(=O)OC(C)(C)C)cc5)c4C[C@@]3(N)C[C@@]12N [PF] | ** (toxicities less than 25 μg/mL are represented by **)
14 | CN(C)c1ccc(-c2cc(C#CC3=CCCCC3)c(O)c3c2C[C@@]2(N)C[C@@]4(N)[C@H](N(C)C)C(O)=C(C(N)=O)C(=O)[C@@]4(C#N)C(O)=C2C3=O)cc1 [QO] | ** (toxicities less than 25 μg/mL are represented by **)
15 | CCCCNC(=O)NCc1cc(N(C)C)c2c(c1O)C(=O)C1=C(O)[C@]3(C#N)C(=O)C(C(N)=O)=C(O)[C@@H](N(C)C)[C@]3(N)C[C@]1(N)C2 [MG] | * (toxicities greater than >25 μg/ml are represented by *)
16 | CN(C)CCNC(=O)c1ccc(-c2ccc(O)c3c2C[C@@]2(N)C[C@@]4(N)[C@H](N(C)C)C(O)=C(C(N)=O)C(=O)[C@@]4(C#N)C(O)=C2C3=O)cc1 [PC] | * (toxicities greater than >25 μg/ml are represented by *)
17 | CN(C)c1cc(/C=C/c2ccccc2)c(O)c2c1[C@H](N)[C@]1(N)C(=C(O)[C@]3(C#N)C(=O)C(C(N)=O)=C(O)[C@@H](N(C)C)[C@]3(N)[C@H]1O)C2=O [BH] | ** (toxicities less than 25 μg/mL are represented by **)
18 | CN(C)[C@@H]1C(O)=C(C(N)=O)C(=O)[C@@]2(C#N)C(O)=C3C(=O)c4c(O)ccc(/C=C/c5ccc(C(F)(F)F)cc5)c4C[C@@]3(N)C[C@@]12N [HK] | ** (toxicities less than 25 μg/mL are represented by **)
19 | CN(C)[C@@H]1C(O)=C(C(N)=O)C(=O)[C@@]2(C#N)C(O)=C3C(=O)c4c(ccc(-c5ccc6c(c5)OCO6)c4O)[C@H](N)[C@@]3(N)[C@H](O)[C@@]12N [CH] | ** (toxicities less than 25 μg/mL are represented by **)
20 | CCC(C)C#Cc1ccc(O)c2c1C[C@@]1(N)C[C@@]3(N)[C@H](N(C)C)C(O)=C(C(N)=O)C(=O)[C@@]3(C#N)C(O)=C1C2=O (stereo partly drawn) [GW] | ** (toxicities less than 25 μg/mL are represented by **)

Row | Structure (SMILES) | In Vitro Cytotoxicity
21 | CN(C)[C@@H]1C(O)=C(C(N)=O)C(=O)[C@@]2(C#N)C(O)=C3C(=O)c4c(ccc(NC(=O)Nc5ccc(Cl)cc5C(F)(F)F)c4O)[C@H](N)[C@@]3(N)[C@H]([S+](N)[O-])[C@@]12N (stereo partly drawn) [BW] | ** (toxicities less than 25 μg/mL are represented by **)
22 | CC(C)S(=O)(=O)NCC#Cc1cc(N(C)C)c2c(c1O)C(=O)C1=C(O)[C@]3(C#N)C(=O)C(C(N)=O)=C(O)[C@@H](N(C)C)[C@]3(N)C[C@]1(N)C2 [JY] | * (toxicities greater than >25 μg/ml are represented by *)
23 | CN(C)c1cc(NCc2ccc3c(c2)OCO3)c(O)c2c1C[C@@]1(N)C[C@@]3(N)[C@H](N(C)C)C(O)=C(C(N)=O)C(=O)[C@@]3(C#N)C(O)=C1C2=O [MK] | ** (toxicities less than 25 μg/mL are represented by **)
24 | COC(=O)c1cc(N)cc(-c2ccc(O)c3c2C[C@@]2(N)C[C@@]4(N)[C@H](N(C)C)C(O)=C(C(N)=O)C(=O)[C@@]4(C#N)C(O)=C2C3=O)c1 [PT] | * (toxicities greater than >25 μg/ml are represented by *)
25 | CN(C)c1cc(NC(=O)Nc2ccc(Cl)cc2C(F)(F)F)c(O)c2c1C[C@@]1(N)C[C@@]3(N)[C@H](N(C)C)C(O)=C(C(N)=O)C(=O)[C@@]3(C#N)C(O)=C1C2=O [CB] | ** (toxicities less than 25 μg/mL are represented by **)
26 | CN(C)[C@@H]1C(O)=C(C(N)=O)C(=O)[C@@]2(C#N)C(O)=C3C(=O)c4c(O)ccc(-c5ccc(CNC6CC6)o5)c4C[C@@]3(N)C[C@@]12N [SX] | ** (toxicities less than 25 μg/mL are represented by **)
27 | CN(C)[C@@H]1C(O)=C(C(N)=O)C(=O)[C@@]2(C#N)C(O)=C3C(=O)c4c(ccc(-c5ccccc5)c4O)C(N)[C@@]3(N)[C@H](O)[C@@]12N (stereo partly drawn) [AX] | ** (toxicities less than 25 μg/mL are represented by **)
28 | CN(C)c1cc(CNCC(C)(C)C)c(O)c2c1C[C@@]1(N)C[C@@]3(N)[C@H](N(C)C)C(O)=C(C(N)=O)C(=O)[C@@]3(C#N)C(O)=C1C2=O [TK] | * (toxicities greater than >25 μg/ml are represented by *)
29 | CN(C)[C@@H]1C(O)=C(C(N)=O)C(=O)[C@@]2(C#N)C(O)=C3C(=O)c4c(O)ccc(-c5ccc(Cl)cc5)c4C[C@@]3(N)C[C@@]12N [DM] | ** (toxicities less than 25 μg/mL are represented by **)
30 | CN(C)Cc1ccc(-c2cc(N(C)C)c3c(c2O)C(=O)C2=C(O)[C@]4(C#N)C(=O)C(C(N)=O)=C(O)[C@@H](N(C)C)[C@]4(N)C[C@]2(N)C3)cc1 [IJ] | * (toxicities greater than >25 μg/ml are represented by *)
31 | CCc1ccc(O)c2c1C[C@@]1(N)C[C@@]3(N)[C@H](N(C)C)C(O)=C(C(N)=O)C(=O)[C@@]3(C#N)C(O)=C1C2=O [GE] | ** (toxicities less than 25 μg/mL are represented by **)
32 | CCOC(=O)c1coc(NCc2cc(N(C)C)c3c(c2O)C(=O)C2=C(O)[C@]4(C#N)C(=O)C(C(N)=O)=C(O)[C@@H](N(C)C)[C@]4(N)C[C@]2(N)C3)n1 [TF] | * (toxicities greater than >25 μg/ml are represented by *)
33 | CC#Cc1cc(N(C)C)c2c(c1O)C(=O)C1=C(O)[C@]3(C#N)C(=O)C(C(N)=O)=C(O)[C@@H](N(C)C)[C@]3(N)C[C@]1(N)C2 [FH] | * (toxicities greater than >25 μg/ml are represented by *)
34 | CN(C)c1cc(CCc2ccc(F)cc2)c(O)c2c1C[C@@]1(N)C[C@@]3(N)[C@H](N(C)C)C(O)=C(C(N)=O)C(=O)[C@@]3(C#N)C(O)=C1C2=O [KF] | ** (toxicities less than 25 μg/mL are represented by **)
35 | CCCCCc1cc(CC2C(=O)c3ccccc3C2=O)c(O)c2c1C[C@@]1(N)C[C@@]3(N)[C@H](N(C)C)C(O)=C(C(N)=O)C(=O)[C@@]3(C#N)C(O)=C1C2=O [LA] | ** (toxicities less than 25 μg/mL are represented by **)
36 | CN(C)c1cc(NC(=O)Nc2ccccc2)c(O)c2c1C[C@@]1(N)C[C@@]3(N)[C@H](N(C)C)C(O)=C(C(N)=O)C(=O)[C@@]3(C#N)C(O)=C1C2=O [IB] | * (toxicities greater than >25 μg/ml are represented by *)
37 | CC(=O)c1ccc(-c2ccc3c(c2O)C(=O)C2=C(O)[C@]4(C#N)C(=O)C(C(N)=O)=C(O)[C@@H](N(C)C)[C@]4(N)[C@@H](O)[C@]2(N)[C@H]3N)cc1 [QP] | ** (toxicities less than 25 μg/mL are represented by **)
38 | CN(C)[C@@H]1C(O)=C(C(N)=O)C(=O)[C@@]2(C#N)C(O)=C3C(=O)c4c(O)cccc4/C(=C\c4ccc(Cl)cc4)[C@@]3(N)[C@H]([S+](N)[O-])[C@@]12N (stereo partly drawn) [BY] | ** (toxicities less than 25 μg/mL are represented by **)
39 | CN(C)[C@@H]1C(O)=C(C(N)=O)C(=O)[C@@]2(C#N)C(O)=C3C(=O)c4c(ccc(NC(=O)OCC(C)(C)C)c4O)[C@H](N)[C@@]3(N)[C@H](O)[C@@]12N [BI] | ** (toxicities less than 25 μg/mL are represented by **)
